# Laboratory results as given in patent publication US10844032B2, “Substituted benzofuran, benzothiophene and indole Mcl-1 inhibitors” (Vanderbilt University, priority 2012, dated 2020).
# Target: recombinant Mcl-1 (residues 172-327) (Homo sapiens (Human), UniProt Q07820)
# Experiment: Bak peptide fluorescence polarization anisotropy competition assay, Mcl-1
# Format: binding
# Conditions: Table 2, Ki range; FITC-Bak peptide 10 nM, Mcl-1 14 nM; read-out: Ki for inhibition of Mcl-1
# Chain of recombinant Mcl-1 (residues 172-327) (Q07820 172-327): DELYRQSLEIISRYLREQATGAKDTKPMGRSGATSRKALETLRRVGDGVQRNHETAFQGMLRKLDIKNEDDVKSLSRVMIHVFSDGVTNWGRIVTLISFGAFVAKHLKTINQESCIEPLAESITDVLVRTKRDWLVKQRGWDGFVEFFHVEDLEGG
row,Ki,Structure (SMILES)
1,≤ 100 nM,"COc1ccncc1-c1cccc2c(CCCOc3cc(C)c(Cl)c(C)c3)c(C(=O)NS(=O)(=O)c3ccccc3)[nH]c12 [Example 90, 3-(3-(4-chloro-3,5-dimethylphenoxy)propyl)-7-(4-methoxypyridin-3-yl)-N-(phenylsulfonyl)-1H-indole-2-carboxamide]"
2,≤ 100 nM,"Cc1cc(OCCCc2c(C(=O)NS(=O)(=O)c3ccccc3)[nH]c3c(-c4ccnn4C)cccc23)cc(C)c1Cl [Example 100, 3-(3-(4-chloro-3,5-dimethylphenoxy)propyl)-7-(1-methyl-1H-pyrazol-5-yl)-N-(phenylsulfonyl)-1H-indole-2-carboxamide]"
3,≤ 100 nM,"Cc1cc(OCCCc2c(C(=O)NS(C)(=O)=O)[nH]c3cccc(C)c23)cc(C)c1Cl [Example 116, 3-(3-(4-chloro-3,5-dimethylphenoxy)propyl)-4-methyl-N-(methylsulfonyl)-1H-indole-2-carboxamide]"

# Same assay, conditions: read-out: Ki for inhibition of Mcl-1
row,Ki,Structure (SMILES)
1,301 to 500 nM,"Cc1cc(OCCCc2c(C(=O)NS(=O)(=O)CCNC(=O)c3cccn3Cc3cccc(Cl)c3)[nH]c3cc(Cl)ccc23)cc(C)c1Cl [Example 243, 6-chloro-3-(3-(4-chloro-3,5-dimethylphenoxy)propyl)-N-((2-(1-(3-chlorobenzyl)-1H-pyrrole-2-carboxamido)ethyl)sulfonyl)-1H-indole-2-carboxamide]"
2,101 to 299 nM,"CS(=O)(=O)NC(=O)c1[nH]c2cccc(Cl)c2c1CCCOc1cccc2ccccc12 [Example 49, 4-chloro-N-(methylsulfonyl)-3-(3-(naphthalen-1-yloxy)propyl)-1H-indole-2-carboxamide]"
3,301 to 500 nM,"Cc1cc(OCCCc2c(C(=O)NS(=O)(=O)CCNC(=O)c3ccc4c(ccn4C)c3)[nH]c3ccccc23)cc(C)c1Cl [Example 196, 3-(3-(4-chloro-3,5-dimethylphenoxy)propyl)-N-((2-(1-methyl-1H-indole-5-carboxamido)ethyl)sulfonyl)-1H-indole-2-carboxamide]"
4,101 to 299 nM,"Cc1cc(OCCCc2c(C(=O)NS(=O)(=O)CCNC(=O)[C@@H]3Cc4ccccc4N3)[nH]c3ccccc23)cc(C)c1Cl [Example 168, (S)-3-(3-(4-chloro-3,5-dimethylphenoxy)propyl)-N-((2-(indoline-2-carboxamido)ethyl)sulfonyl)-1H-indole-2-carboxamide]"
5,501 to 999 nM,"Cc1cc(OCCCc2c(C(=O)NS(=O)(=O)CCNC(=O)c3cc(Br)no3)[nH]c3ccccc23)cc(C)c1Cl [Example 185, 3-bromo-N-(2-(N-(3-(3-(4-chloro-3,5-dimethylphenoxy)propyl)-1H-indole-2-carbonyl)sulfamoyl)ethyl)isoxazole-5-carboxamide]"
6,10000 to 50000 nM,"CS(=O)(=O)NC(=O)c1[nH]c2ccccc2c1CCCOc1ccc(Br)cc1 [Example 36, 3-(3-(4-bromophenoxy)propyl)-N-(methylsulfonyl)-1H-indole-2-carboxamide]"
7,501 to 999 nM,"Cc1cc(OCCCc2c(C(=O)NS(=O)(=O)CCNC(=O)c3cncs3)[nH]c3ccccc23)cc(C)c1Cl [Example 189, N-(2-(N-(3-(3-(4-chloro-3,5-dimethylphenoxy)propyl)-1H-indole-2-carbonyl)sulfamoyl)ethyl)thiazole-5-carboxamide]"
8,101 to 299 nM,"Cc1cc(OCCCc2c(C(=O)NS(=O)(=O)CCNC(=O)c3cccn3Cc3ccccc3F)[nH]c3cc(Cl)ccc23)cc(C)c1Cl [Example 248, 6-chloro-3-(3-(4-chloro-3,5-dimethylphenoxy)propyl)-N-((2-(1-(2-fluorobenzyl)-1H-pyrrole-2-carboxamido)ethyl)sulfonyl)-1H-indole-2-carboxamide]"
9,1000 to 9990 nM,"Cc1cc(OCCCc2c(C(=O)NS(=O)(=O)CCNC(=O)c3cnco3)[nH]c3ccccc23)cc(C)c1Cl [Example 188, N-(2-(N-(3-(3-(4-chloro-3,5-dimethylphenoxy)propyl)-1H-indole-2-carbonyl)sulfamoyl)ethyl)oxazole-5-carboxamide]"
10,1000 to 9990 nM,"Cc1cc(OCCCc2c(C(=O)NS(=O)(=O)CCNC(=O)CC3CCCCC3)[nH]c3ccccc23)cc(C)c1Cl [Example 152, 3-(3-(4-chloro-3,5-dimethylphenoxy)propyl)-N-((2-(2-cyclohexylacetamido)ethyl)sulfonyl)-1H-indole-2-carboxamide]"
11,101 to 299 nM,"CCC(=O)NCCS(=O)(=O)NC(=O)c1[nH]c2cc(Cl)ccc2c1CCCOc1cc(C)c(Cl)c(C)c1 [Example 252, 6-chloro-3-(3-(4-chloro-3,5-dimethylphenoxy)propyl)-N-((2-propionamidoethyl)sulfonyl)-1H-indole-2-carboxamide]"
12,101 to 299 nM,"Cc1cc(OCCCc2c(C(=O)NS(=O)(=O)CCNC(=O)c3cccn3Cc3cccc(F)c3)[nH]c3cc(Cl)ccc23)cc(C)c1Cl [Example 246, 6-chloro-3-(3-(4-chloro-3,5-dimethylphenoxy)propyl)-N-((2-(1-(3-fluorobenzyl)-1H-pyrrole-2-carboxamido)ethyl)sulfonyl)-1H-indole-2-carboxamide]"
13,1000 to 9990 nM,"Cc1cc(OCCCc2c(C(=O)NS(=O)(=O)CCNC(=O)c3ccn[nH]3)[nH]c3ccccc23)cc(C)c1Cl [Example 181, N-((2-(1H-pyrazole-5-carboxamido)ethyl)sulfonyl)-3-(3-(4-chloro-3,5-dimethylphenoxy)propyl)-1H-indole-2-carboxamide]"
14,101 to 299 nM,"COC(=O)c1ccc(S(=O)(=O)NC(=O)c2[nH]c3cc(Cl)ccc3c2CCCOc2cc(C)c(Cl)c(C)c2)n1C [Example 265, methyl 5-(N-(6-chloro-3-(3-(4-chloro-3,5-dimethylphenoxy)propyl)-1H-indole-2-carbonyl)sulfamoyl)-1-methyl-1H-pyrrole-2-carboxylate]"
15,301 to 500 nM,"Cc1cc(OCCCc2c(C(=O)NS(=O)(=O)C3CCN(C(=O)c4cccc(Oc5ccccc5)c4)CC3)[nH]c3cc(Cl)ccc23)cc(C)c1Cl [Example 213, 6-chloro-3-(3-(4-chloro-3,5-dimethylphenoxy)propyl)-N-((1-(3-phenoxybenzoyl)piperidin-4-yl)sulfonyl)-1H-indole-2-carboxamide]"
16,301 to 500 nM,"O=C(CCc1ccccc1)NCCS(=O)(=O)NC(=O)c1[nH]c2cc(Cl)ccc2c1CCCOc1cccc2ccccc12 [Example 240, 6-chloro-3-(3-(naphthalen-1-yloxy)propyl)-N-((2-(3-phenylpropanamido)ethyl)sulfonyl)-1H-indole-2-carboxamide]"
17,101 to 299 nM,"Cc1cc(OCCCc2c(C(=O)NS(=O)(=O)CCCNC(=O)c3cccn3Cc3ccccc3)[nH]c3cc(Cl)ccc23)cc(C)c1Cl [Example 258, N-((3-(1-benzyl-1H-pyrrole-2-carboxamido)propyl)sulfonyl)-6-chloro-3-(3-(4-chloro-3,5-dimethylphenoxy)propyl)-1H-indole-2-carboxamide]"
18,101 to 299 nM,"Cc1cc(OCCCc2c(C(=O)NS(=O)(=O)CCNC(=O)c3cccn3Cc3ccccc3)n(Cc3ccccc3)c3cc(Cl)ccc23)cc(C)c1Cl [Example 278, 1-benzyl-N-((2-(1-benzyl-1H-pyrrole-2-carboxamido)ethyl)sulfonyl)-6-chloro-3-(3-(4-chloro-3,5-dimethylphenoxy)propyl)-1H-indole-2-carboxamide]"
19,101 to 299 nM,"CS(=O)(=O)NC(=O)c1[nH]c2cc(Cl)ccc2c1CCCOc1cccc2ccccc12 [Example 52, 6-chloro-N-(methylsulfonyl)-3-(3-(naphthalen-1-yloxy)propyl)-1H-indole-2-carboxamide]"
20,301 to 500 nM,"Cc1cc(OCCCc2c(C(=O)NS(=O)(=O)c3cccnc3)[nH]c3ccccc23)cc(C)c1Cl [Example 133, 3-(3-(4-chloro-3,5-dimethylphenoxy)propyl)-N-(pyridin-3-ylsulfonyl)-1H-indole-2-carboxamide]"
21,301 to 500 nM,"CS(=O)(=O)NC(=O)c1[nH]c2cccc(C(F)(F)F)c2c1CCCOc1cccc2ccccc12 [Example 81, N-(methylsulfonyl)-3-(3-(naphthalen-1-yloxy)propyl)-4-(trifluoromethyl)-1H-indole-2-carboxamide]"

# Target: Bcl-2 (residues 1-207 A96T,G110R, Δ35-91, replaced with Bcl-xL35-50) (Homo sapiens, UniProt P10415, A37E/DEL42-87/G36T/INS34DVEEN/P40E/P88T/P90S/P91E/V35R/V89E)
# Experiment: Bak peptide fluorescence polarization anisotropy competition assay, Bcl-2 selectivity
# Format: binding
# Conditions: Table 3; FITC-Bak peptide 10 nM, Bcl-2 40 nM
# Experimental: Compound affinity was measured using a fluorescence polarization anisotropy competition assay. Anisotropy measurements were carried out in 384-well, black, flat-bottom plates (Greiner Bio-one, Monroe, N.C., USA).
# Compounds are diluted in DMSO in a 10-point, 3-fold serial dilution scheme. 2.5 uL compound is added to 47.5 uL of assay buffer containing FITC-Bak and protein, for a final DMSO concentration of 5% and a top concentration of 20 uM. […] The plate was mixed and incubated for 90 minutes at room temperature.
# Chain of Bcl-2 (residues 1-207 A96T,G110R, Δ35-91, replaced with Bcl-xL35-50) (P10415 with tags, fused parts or gaps A37E/DEL42-87/G36T/INS34DVEEN/P40E/P88T/P90S/P91E/V35R/V89E): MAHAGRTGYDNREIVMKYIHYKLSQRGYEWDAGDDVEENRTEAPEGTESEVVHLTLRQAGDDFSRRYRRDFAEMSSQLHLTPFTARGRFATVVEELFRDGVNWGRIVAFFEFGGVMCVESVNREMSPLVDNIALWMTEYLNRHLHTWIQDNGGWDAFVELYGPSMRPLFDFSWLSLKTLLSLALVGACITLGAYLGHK
row,Structure (SMILES),Ki
1,"O=C(O)c1sc2cc(Cl)ccc2c1CCCOc1cccc2ccccc12 [Example 5, 6-chloro-3-(3-(naphthalen-1-yloxy)propyl)benzo[b]thiophene-2-carboxylic acid]",1100 nM
2,"O=C(O)c1oc2ccccc2c1CCCOc1cccc2ccccc12 [Example 21, 3-(3-(naphthalen-1-yloxy)propyl)benzofuran-2-carboxylic acid]",4600 nM
